According to patent US20200113913A1, “METHODS FOR HAIR FOLLICLE STEM CELL PROLIFERATION” (Frequency Therapeutics, Inc., priority 2017, published 2020):
Entries after “also recorded” stand apart in the source; their conditions may differ.

Tests used:
[1] = test system: Dermal Papilla (DP) cells; test: Stem Cell Proliferation Assay using dermal papilla; assay type: cell-based; details: Purmorphamine 1 μM; for Alkaline Phosphatase (Alp) colonies: Example 4, FIG. 4
Experimental: Dermal Papilla (DP) proliferation cell culture assay refers to a cell culture method to quantify the number of Dermal Papilla (DP) spheroids, size of DP spheroids, or number of DP cells in cell culture, which is measured at the end of the assay. DP cells refer to cells that express Alkaline Phosphatase (AP), and/or Versican, and/or Vimentin, and/or Sox2, and/or CD133.
The protocol for the Stem Cell Proliferation Assay using dermal papilla is as follows:
Basal media: DMEM/high-glucose medium and F12, supplemented with N2 1×, B27 1×, Streptomycin sulfate (100 μg/ml), Amphotericin B ([…]), and 1 mM Hepes.
Microdissection is used to remove intact hair follicles from a specimen. Intact follicles are incubated for 40 min at 37° C. in TrypLE™ (Thermo Fisher Scientific) with 1 mg/ml collagenase type 1 (sterilized using 0.2 μm syringe filter). The treated follicles are then triturated >30× using a 200 μl pipette tip. The volume is adjusted up to 1 ml with 1×PBS. The treated follicles are then passed through a 40 μm cell strainer to obtain a single cell suspension.
Twenty μl are applied to a cell counter to determine the number of cells per 1 ml. The remaining cell suspension is spun down at 1,000×g for 5 min at 4° C.
Standard media is prepared supplemented with growth factors (IGF, EGF, and FGF2 at 50 ng/ml). The cells are suspended in standard media with growth factors at 120,000 cells/ml and 250 μl (30,000 cells) are applied to each well of a 24-well plate (Corning Costar, 3534).
Each treatment condition is prepared at 2× concentration, enough for 250 μl/well for a final dilution of 1× in 500 μl. The final DMSO concentration is at about 0.2% for all.
250 μl 2× treatment media is applied to each well to have a final media volume per well of 500 μl. The final treatment concentration per well is 1×. The final cell density is 30,000 cells per well. […]
EVOS® transmitted light images are taken at 0, 5, 7, and 10 days in culture.
Spheroids are collected at 10 days in culture for immunoblotting, qPCR, or flow cytometry. Alternatively, spheroids may be applied to glass bottom dishes coated with poly-1-lysine for alkaline phosphatase (AP) staining, 5-ethynyl-2′-deoxyuridine (EdU) staining, and/or immunofluorescence for DP markers (e.g. Vimentin, Sox2, Versican, CD133) for microscopy.
Alternatively, cells or colonies may be assessed using microscopy to compare DP properties across conditions.

[2] = molecular target: GSK3-alpha (Homo sapiens, UniProt P49840); details: cited from earlier work
GSK3-alpha, sequence (P49840 whole entry, species assumed): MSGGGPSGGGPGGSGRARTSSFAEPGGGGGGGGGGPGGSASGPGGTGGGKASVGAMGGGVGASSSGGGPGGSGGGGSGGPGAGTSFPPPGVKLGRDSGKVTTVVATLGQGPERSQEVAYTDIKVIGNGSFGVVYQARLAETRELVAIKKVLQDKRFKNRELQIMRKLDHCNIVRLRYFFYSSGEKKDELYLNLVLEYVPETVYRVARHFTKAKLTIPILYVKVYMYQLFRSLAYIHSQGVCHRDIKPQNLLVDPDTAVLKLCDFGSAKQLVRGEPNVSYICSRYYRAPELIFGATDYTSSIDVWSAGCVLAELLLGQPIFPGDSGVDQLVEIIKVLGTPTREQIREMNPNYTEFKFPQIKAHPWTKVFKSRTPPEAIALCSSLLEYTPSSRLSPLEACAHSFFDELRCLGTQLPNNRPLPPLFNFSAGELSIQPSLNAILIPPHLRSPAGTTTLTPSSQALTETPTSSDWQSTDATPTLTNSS

[3] = molecular target: GSK3-beta (Homo sapiens, UniProt P49841); details: cited from earlier work
GSK3-beta, sequence (P49841 whole entry, species assumed): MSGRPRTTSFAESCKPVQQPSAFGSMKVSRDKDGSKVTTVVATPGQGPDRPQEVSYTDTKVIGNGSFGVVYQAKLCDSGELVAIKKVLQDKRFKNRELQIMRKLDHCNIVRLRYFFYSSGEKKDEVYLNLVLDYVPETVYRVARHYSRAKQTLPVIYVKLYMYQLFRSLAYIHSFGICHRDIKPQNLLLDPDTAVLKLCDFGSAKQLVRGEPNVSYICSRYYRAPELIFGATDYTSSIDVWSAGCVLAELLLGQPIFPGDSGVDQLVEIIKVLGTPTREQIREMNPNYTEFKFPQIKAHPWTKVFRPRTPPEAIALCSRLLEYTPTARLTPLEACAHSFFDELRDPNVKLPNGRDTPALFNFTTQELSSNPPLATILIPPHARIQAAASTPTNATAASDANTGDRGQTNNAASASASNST

[4] = Example 2, FIG. 2, 10 days in culture, Compound I-7 10 nM, alone or combined
[5] = 10 days in culture, Compound I-7 10 nM, alone or combined
[6] = Example 3, FIG. 3, SAG 3 nM, SAG HCl 500 nM, alone or with Compound I-7 10 nM
[7] = Example 1, FIG. 1, 8 days in culture, CHIR99021 4 μM, alone or combined

## O=C1NC(=O)C(c2cnc3ccccn23)=C1c1cn2c3c(cc(F)cc13)CN(C(=O)N1CCC(F)(F)CC1)CC2 [Compound I-7, 3-(2-(4,4-difluoropiperidine-1-carbonyl)-9-fluoro-1,2,3,4-tetrahydro-[1,4]diazepino[6,7,1-hi]indol-7-yl)-4-(imidazo[1,2-a]pyridin-3-yl)-1H-pyrrole-2,5-dione]
[1]; [4]
  DP colonies by light microscopy: more abundant colonies than FIG. 2A; also recorded: more abundant colonies than DP cells treated in control conditions
[1]; [5]
  Alkaline Phosphatase (Alp) colonies: small Alp colonies; also recorded: few Alp colonies

## CNC1CCC(N(Cc2cccc(-c3ccncc3)c2)C(=O)c2sc3ccccc3c2Cl)CC1 (centres unmarked) [SAG]
[1]; [6]
  DP colonies by light microscopy: form colonies

## c1ccc2c(Oc3nc(Nc4ccc(N5CCOCC5)cc4)c4ncn(C5CCCCC5)c4n3)cccc2c1 [Purmorphamine]
[1]; [7]
  DP colonies by light microscopy: slightly larger and more abundant colonies than FIG. 1A; also recorded: slightly larger and more abundant colonies than DP cells treated in control conditions
[1]; [4]
  DP colonies by light microscopy: slightly larger and more abundant colonies than FIG. 2A; also recorded: slightly larger and more abundant colonies than DP cells treated in control conditions
[1]; [6]
  DP colonies by light microscopy: form colonies
[1]; [5]
  Alkaline Phosphatase (Alp) colonies: few Alp colonies

## Cc1c[nH]c(-c2cnc(NCCNc3ccc(C#N)cn3)nc2-c2ccc(Cl)cc2Cl)n1 [CHIR99021]
[1]; [7]
  DP colonies by light microscopy: more abundant colonies than FIG. 1A; also recorded: more abundant colonies than DP cells treated in control conditions

## Cc1ccc(C(=O)Nc2c[nH]nc2C(=O)NCCCOC(C)C)cn1 [GSK-3b XXII]
[2]
  Potency in nM GSK3-alpha: 2.3 nM

## COc1ccccc1[C@@H]1C2=C(CC(C)(C)CC2=O)Nc2n[nH]c(C(F)(F)F)c21 [BRD1172]
[3]
  Potency in nM GSK3-beta: 10 nM
[2]
  Potency in nM GSK3-alpha: 3 nM

## CC1(C)CC(=O)C2=C(C1)Nc1n[nH]c(C(F)(F)F)c1[C@]2(C)c1ccccc1 [BRD1652]
[3]
  Potency in nM GSK3-beta: 4 nM
[2]
  Potency in nM GSK3-alpha: 0.4 nM

## N#Cc1ccc2[nH]c(O)c(-c3ccc(CN4CCOCC4)cn3)c2c1 [AZD1080]
[2]
  Potency in nM GSK3-alpha: 6.9 nM
